Laboratory results from patent publication US20170240556A1, “BIFLUORODIOXALANE-AMINO-BENZIMIDAZOLE KINASE INHIBITORS FOR THE TREATMENT OF CANCER, AUTOIMMUNEINFLAMMATION AND CNS DISORDERS” (4SC DISCOVERY GMBH, priority 2012, published 2017).

Test system: Wnt/β-catenin signaling pathway
Assay: Wnt reporter assay (CellSensor LEF/TCF-bla FreeStyle 293F cells)
Assay type: cell-based
Settings: Homo sapiens; LEF/TCF-bla 293F cells, LiCl and mWnt3a stimulation
Method: The Wnt reporter assay was performed in stably transfected human HEK293 cells. Wnt signaling was induced by administration of Wnt3a protein and read out by β-Lactamase mediated cleavage of CCF4-AM and subsequent fluorescent detection.
CellSensor LEF/TCF-bla FreeStyle 293F cells (invitrogen #K1677) contain a beta-lactamase reporter gene under control of the β-catenin/LEF/TCF binding elements stably integrated into FreeStyle 293F cells. This cell line can be used to detect antagonists of the Wnt/β-catenin signaling pathway when stimulated by mouse Wnt3a or LiCl. The detection of beta-lactamase is possible with LiveBLAzer FRET—B/G Loading Kit (invitrogen #K1095) with CCF4-AM as subtrate.
Culture Medium: DMEM Medium +10% dialyzed FBS (PAN 2102-P290310), +1% NEAA (PAA M11-003), +1% P/S (Penicillin/Streptomycin, PAA P11-010) +25 mM HEPES (PAA S11-001), +5 μg/ml Blasticidin (PAA P05-017).
Cells (CellSensor LEF/TCF-bla FreeStyle 293F, invitrogen K1677) were split with Culture Medium to reach a confluence at the beginning of the assay of 80-90%.
At start of the assay, cells were harvested from culture and resuspend in assay medium at density of 0,66*10̂6 cells/ml. Subsequently, 60μ1 cell suspension were pipetted in each well of a Poly-D-Lysine 96 well Plate (BD #354640, vertical rows are marked 1 through 12, horizontal lanes are marked A through H),
Plates were subsequently incubated at 37° C. for at least 2 h.
To stimulate with Wnt3a, overnight prestimulation of Wnt signalling pathway with LiCl is necessary. Subsequently, an 8M aqueous LiCl solution was diluted 1:200 in assay medium, and 30 μl of said diluted LiCl solution was plated into the appropriate wells (see below pipetting scheme). Plates were then incubated at 37° C. over night.
Subsequently, compounds and controls were prepared as follows: mWnt3a (R&D 1324-WN, dissolved in PBS+0.1% BSA to 40 μg/ml) was diluted 1:100 in assay medium (=400 ng/ml). Compounds (Cpd) were diluted to a concentration of 10 mM in DMSO to prepare dilution series in assay medium (final concentrations 30 μM, 10 μM, 3 μM, 1 μM, 0.3 μM, 0.1 μM, 0.03 μM and 0.01 μM), which were pipetted into the appropriate wells (see below pipetting scheme). For each dilution of each compound, 3 replicates were tested. Final DMSO concentration was 0.3%.
LiCl and mWnt3a stimulated cells were used as High control (HC), unstimulated cells were used as low control, a blank was prepared from cell free medium plus mWnt3a, and a functional control was prepared with a known Wnt inhibitor (e.g. PKF118-310), final concentrations were as above.
Subsequently, the well was incubated for 5 h at 37° C.
At t=23 hours, FRET reagent mix (Loading Kit with CCF4-AM, Life Technologies #K1096) was prepared; per plate: 138 μl Solution B, 13.8 μl FRET-reagent, and 2300 μl Solution C. 24 μl FRET reagent mix were plated to each well, subsequently plates were incubated for at least 2 h in the dark (it is possible to incubate over night). Subsequently, plates were measured in the BMG FluorStar® plate reader at an emission waveltengths of 460 and 520 nm and with an excitation wavelength of 405 nm.
To determine potential cytotoxicity of the compounds, plates were centrifuge and the supernatant was discarded by dumping the plates. Subsequently, 100 μl Opti-MEM and 50 μl ViaLight (Lonza #LT07-321) Lysis Buffer were added to each well, followed by incubation for 10 min at room temperature (25° C.). Subsequently, 100 μl ViaLight reagent were added to each well, followed by incubation for 2 min at room temperature (25° C.) in the dark. Optionally, 200 μl of the obtained suspension were transferred to a white 96 well plate. The luminescence was measured with a Tecan Ultra plate reader.

`COc1cccc(C(=O)Nc2nc3cc4c(cc3[nH]2)OC(F)(F)O4)c1` [Compound 56, N-(2,2-difluoro-5H-[1,3]dioxolo[4′,5′:4,5]benzo[1,2-d]imidazol-6-yl)-3-methoxybenzamide] gave an IC50 of less than 5 µM.
